Test results: ChEMBL document CHEMBL1201862, “PubChem BioAssay data set” (2004)
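Briefly, cells in 96-well plates were exposed to five compound concentrations for 48 h, and endpoints were estimated by linear interpolation. Abbreviation: GI50, concentration required for 50% inhibition of growth.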 Calls of active or inactive are those of the source. Cut-off read from the data, not from the text of the source: active = GI50 up to about 1.1 µM and inactive = higher.

Experiments:
Assay in all cases: DTP human tumour cell line panel, 48 h
[1] = system: MOLT-4
[2] = system: SF-268
[3] = system: SK-MEL-28
[4] = system: HT-29
[5] = system: Malme-3M
[6] = system: SK-OV-3
[7] = system: HOP-62
[8] = system: IGROV-1
[9] = system: OVCAR-3
[10] = system: SW-620
[11] = system: UO-31
[12] = system: SK-MEL-2
[13] = system: MDA-MB-231
[14] = system: SNB-19
[15] = system: MCF7
[16] = system: HCC 2998
[17] = system: HCT-15
[18] = system: T47D
[19] = system: 786-0

SMILES | GI50 [1] | GI50 [2] | GI50 [3] | GI50 [4] | GI50 [5] | GI50 [6] | GI50 [7] | GI50 [8] | GI50 [9] | GI50 [10] | GI50 [11] | GI50 [12] | GI50 [13] | GI50 [14] | GI50 [15] | GI50 [16] | GI50 [17] [µM] | GI50 [18] | GI50 [19]
Cc1cccc2c(NCCCN(C)C)c3c([N+](=O)[O-])ccc(C)c3nc12 | 0.0178 µM (active) | 0.198 µM (active) | 2.32 µM (inactive) | 0.0809 µM (active) | 0.175 µM (active) | 0.278 µM (active) | 0.047 µM (active) | 0.0574 µM (active) | 0.109 µM (active) | 0.0659 µM (active) | 0.216 µM (active) | 0.132 µM (active) | 0.217 µM (active) | 0.192 µM (active) | < 0.0161 µM (active) | < 0.0255 µM (active) | 0.0435 | 0.0879 µM (active) | 0.0689 µM (active)
COc1ccc(C(SC2C(O)C(CO)OC2n2ccc(=O)[nH]c2=O)(c2ccccc2)c2ccc(OC)cc2)cc1 (configuration not stated) | 26.9 µM (inactive) | 17.9 µM (inactive) | 21.8 µM (inactive) | 17.6 µM (inactive) | 20.7 µM (inactive) | 13.7 µM (inactive) | 17.9 µM (inactive) | 17.7 µM (inactive) | 17.6 µM (inactive) | 22.2 µM (inactive) | 16.6 µM (inactive) | 15.1 µM (inactive) | 16.1 µM (inactive) | 12.4 µM (inactive) | 17.1 µM (inactive) | 14.8 µM (inactive) | 15.5 | 16.6 µM (inactive) | 16.3 µM (inactive)
COC(=O)CC1C2CC3C(C2=O)C13 (configuration not stated) | > 100 µM (inactive) | > 100 µM (inactive) | > 100 µM (inactive) | > 100 µM (inactive) | > 100 µM (inactive) | > 100 µM (inactive) | > 100 µM (inactive) | > 100 µM (inactive) | > 100 µM (inactive) | > 100 µM (inactive) | > 100 µM (inactive) | > 100 µM (inactive) | > 100 µM (inactive) | > 100 µM (inactive) | > 100 µM (inactive) | > 100 µM (inactive) | > 100 | > 100 µM (inactive) | > 100 µM (inactive)
O=C(CSc1nc2ccccc2c(=O)n1-c1ccccc1)N/N=C1\C(=O)Nc2ccc(Br)cc21 | 3.33 µM (inactive) | 5.48 µM (inactive) | 3.35 µM (inactive) | 1.69 µM (inactive) | 2.26 µM (inactive) | 3.41 µM (inactive) | 2.59 µM (inactive) | 2.14 µM (inactive) | 3.1 µM (inactive) | 3.37 µM (inactive) | 2.28 µM (inactive) | 9.53 µM (inactive) | 1.65 µM (inactive) | 3.03 µM (inactive) | 3.49 µM (inactive) | 8.17 µM (inactive) | 4.39 | 4.92 µM (inactive) | 1.95 µM (inactive)
COc1cc(C2S/C(=C/c3ccccc3)C(=O)N2c2cc(Cl)c(Cl)cc2Cl)cc(OC)c1OC (configuration not stated) | 25.2 µM (inactive) | 29.6 µM (inactive) | > 64 µM (inactive) | 46.2 µM (inactive) | 26.2 µM (inactive) | > 70.5 µM (inactive) | 28.4 µM (inactive) | 23.9 µM (inactive) | 24.2 µM (inactive) | 47.6 µM (inactive) | 26.7 µM (inactive) | 41.3 µM (inactive) | > 66.8 µM (inactive) | > 63.1 µM (inactive) | 30.4 µM (inactive) | 39.1 µM (inactive) | 28.7 | > 50.8 µM (inactive) | 38.3 µM (inactive)
NC(=O)NC(=O)CCC(NS(=O)(=O)c1ccccc1)C(=O)NC(N)=O (configuration not stated) | > 100 µM (inactive) | > 100 µM (inactive) | > 100 µM (inactive) | > 100 µM (inactive) | > 100 µM (inactive) | > 100 µM (inactive) | > 100 µM (inactive) | > 100 µM (inactive) | > 100 µM (inactive) | > 100 µM (inactive) | > 100 µM (inactive) | > 100 µM (inactive) | > 100 µM (inactive) | > 100 µM (inactive) | > 100 µM (inactive) | > 100 µM (inactive) | > 100 | > 100 µM (inactive) | > 100 µM (inactive)
Cc1ccc(NC(=O)c2cccc(OP(=O)(O)Nc3ccc(C)cc3)c2)cc1 | 64.6 µM (inactive) | > 100 µM (inactive) | > 100 µM (inactive) | > 100 µM (inactive) | > 100 µM (inactive) | > 100 µM (inactive) | > 100 µM (inactive) | > 100 µM (inactive) | > 100 µM (inactive) | > 100 µM (inactive) | 88.1 µM (inactive) | > 100 µM (inactive) | 74.1 µM (inactive) | > 100 µM (inactive) | > 100 µM (inactive) | > 100 µM (inactive) | > 100 | 79.3 µM (inactive) | > 100 µM (inactive)
O[C@H]1[C@H](O)[C@@H](O)[C@H](O)[C@@H](O)[C@H]1O [INOSITOL] | 154 µM (inactive) | > 1000 µM (inactive) | > 1000 µM (inactive) | > 1000 µM (inactive) | > 1000 µM (inactive) | > 1000 µM (inactive) | > 1000 µM (inactive) | > 1000 µM (inactive) | > 1000 µM (inactive) | > 1000 µM (inactive) | > 1000 µM (inactive) | > 1000 µM (inactive) | > 1000 µM (inactive) | > 1000 µM (inactive) | > 1000 µM (inactive) | > 1000 µM (inactive) | > 1000 | > 1000 µM (inactive) | > 1000 µM (inactive)
